# Measured values reported in patent US20250152605A1, “METHOD AND DRUG FOR TREATING NEURONAL CEROID LIPOFUSCINOSIS” (priority 2021, published 2025).
# Columns and labels:
# p62 protein = p62 protein blotting with Baf-A1 (autophagic flux) in human neurons; type: cell-based
# Procedure: Sample preparation: for adherent cultured cells, exemplified by cells cultured in a six-well cell plate, the cell medium was aspirated and the cells were washed once with dPBS. About 100 μL of RIPA lysate (50 mM Tris-HCl, pH 7.5, 150 mM NaCl, 0.25% Na-deoxycholate, 0.1% NP-40, 0.1% Triton X-100) containing protease inhibitors and phosphatase inhibitors was added to each well. The cell lysate was scraped off completely with a cell scraper and collected into 1.5 mL EP tubes. Lysis was continued for 30 minutes on ice. For animal tissue, the weight of the animal tissue was weighed, and RIPA lysate containing protease inhibitors and phosphatase inhibitors was added with five times the volume of the animal tissue. The tissue was grinded on ice with a tissue grinder until there is no obvious tissue mass, collected into 1.5 mL EP tubes, and placed on ice for further lysis for 30 min. […]
# CLN3^Δex7/8 neurons = test: Intracellular relative ATP content (Cell Titer Glo); type: cell-based, human; settings: same number of CLN3^Δex7/8 neurons
# Procedure: Neural stem cells or neurons were digested into single cells and were counted using a hemocytometer. The cell suspension was then diluted to the same cell concentration (10^5˜10^6/mL). 100 μL of cell suspension was taken out into a white 96-well analysis plate, and 100 μL of CellTiter-Lumi™ Steady Plus reagent that had been equilibrated to room temperature was added, shaken to mix, and incubated at room temperature for 15 minutes. The chemiluminescence intensity of the sample was then read using a multifunctional microplate reader to indicate the intracellular relative ATP content.
# To test the effect of compound G on mitochondrial homeostasis in CLN3^Δex7/8 neurons, fluorescently labeled mitochondrial outer membrane protein OMP25-GFP was overexpressed in neurons, and the morphological changes of mitochondria were observed by laser confocal microscope. […] The amount of ATP generation in the same number of neurons was tested using Cell Titer Glo reagent.
# Cln3 KO mice = test: Open field test; type: in vivo, mouse; settings: 4-5 months old Cln3 KO mice, within 10 minutes
# Procedure: Open field tests were conducted on mice using blue boxes measuring 50 cm×50 cm×40 cm, with specific steps as follows: the mice to be tested were kept in single cages for more than 1 week to adapt to the environment; the central 25 cm×25 cm area of the box was divided into a central area. The mice were placed gently in the central area facing away from the experimenter, and the video device was started to record the movement track of the mice within 10 minutes; the boxes were thoroughly wiped twice with 75% ethanol to eliminate the odor of the mouse, and then the next mouse was placed for movement track record within 10 minutes; the movement track of mice was analyzed with the Noldus software, and the analysis indicators included the movement speed and total movement distance of mice. The number of times the mice stood upright on their hind legs within 10 minutes was manually counted by the experimenter.
# […] experiments were conducted on 4-5 months old wild-type mice, Cln3 KO mice, and Compound G-treated Cln3 KO mice. The mouse was gently placed in the mine field, it was allowed to move freely, and the route, distance and speed of its movement within 10 minutes were recorded.
# NRF2 downstream genes = test: qRT-PCR of NRF2 downstream genes; type: cell-based; settings: CLN3^Δex7/8 human neural stem cells, 6 hours
# Procedure: The cells in the cell-culture dish were collected, extracted using AxyPrep Total RNA Mini Prep Kit or Qiagen AxyPrep Total RNA Mini Prep Kit, and the extracted RNA concentration is measured using Nanodrop; the extracted mRNA was reverse transcribed into cDNA by Transgen's EasyScript® One-Step gDNA Removal and cDNA Synthesis SuperMix and the primers used for reverse transcription were Oligo dT primers; the completion of reverse transcription followed by qRT-PCR reaction through PerfectStart™ Green qPCR SuperMix to detect the expression of the target gene; the qRT-PCR reaction was performed on the Bio-Rad CFX96 Real-Time PCR system; see Table 2 and Table 3 for the 20 μL qRT-PCR reaction system and reaction procedures; data analysis was performed in Prism 7 software using the 2^−ΔΔCt process with GAPDH as internal reference for relative quantification of the expression of the target gene.
# Primers were further designed, verification of qRT-PCR was conducted on the above activated genes in the downstream of NRF2. After treating CLN3^Δex7/8 human neural stem cells with Compound G for 6 hours, the cells were collected and mRNA was extracted for detecting the expression level of the genes.
smiles,measurement,setting,value
"C/C=C1\C(=O)C[C@H]2[C@@H]3CCC4=CC(=O)CC[C@]4(C)[C@H]3CC[C@]12C [Compound G, (Z)-guggulsterone]",increases of p62 protein after adding Baf-A1 (autophagic flux),p62 protein; CLN3^Δex7/8 human neurons,higher increases of p62 protein
same,intracellular protein level of p62,p62 protein; under the condition of adding Baf-A1,still significantly increase
same,capacity of ATP generation,CLN3^Δex7/8 neurons,significantly increased
same,distance of the movement in the field,Cln3 KO mice,improve the distance and the speed of the movement
same,speed of the movement in the field,Cln3 KO mice,improve the distance and the speed of the movement
same,expression level of most NRF2 downstream genes,NRF2 downstream genes,significantly increase
